In US20080275058A1, “N-Substituted-1H-Quinoline-2,4-Diones, Preparation Method Thereof, And Pharmaceutical Composition Containing The Same” (KOREA RESEARCH INSTITUTE OF CHEMICAL TECHNOLOGY, priority 2005, published 2008):
Where two headings read alike, the source gives them in different places.

What was measured:
hD4.2 receptor = biological target: T1, hD4.2 receptor (Homo sapiens, UniProt P21917, DEL265-296); experiment: Radioligand binding, dopamine D4 ([3H]YM-09151-2); conditions: Table 4; [3H]YM-09151-2 0.06 nM; read-out: Binding affinity, IC50 (nM) D4
T1 construct: purchased BioSignal Packard Inc., Montreal, Canada
T1 sequence (P21917 with tags, fused parts or gaps DEL265-296): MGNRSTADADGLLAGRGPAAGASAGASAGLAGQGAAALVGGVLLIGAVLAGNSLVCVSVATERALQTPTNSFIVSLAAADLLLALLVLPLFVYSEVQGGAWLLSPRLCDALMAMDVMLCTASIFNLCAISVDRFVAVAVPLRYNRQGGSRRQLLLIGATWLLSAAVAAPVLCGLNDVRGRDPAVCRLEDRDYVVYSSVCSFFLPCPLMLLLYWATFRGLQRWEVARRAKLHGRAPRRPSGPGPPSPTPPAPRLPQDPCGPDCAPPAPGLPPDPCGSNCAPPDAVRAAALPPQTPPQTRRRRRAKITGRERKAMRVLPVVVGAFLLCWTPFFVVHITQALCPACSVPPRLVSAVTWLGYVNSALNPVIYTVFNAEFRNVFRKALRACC
Procedure, shortened: (§1)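 Membrane competition binding with [3H]spiperone (1 nM) for hD2L and hD3, or [3H]YM-09151-2 (0.06 nM) for hD4.2, each in receptor-specific Tris-HCl pH 7.4 buffer containing Mg2+/EDTA (D3 and D4 also with K+, Ca2+; D3 with 120 mM NaCl). Compounds were tested at 7-8 concentrations in duplicate, and IC50 was derived by nonlinear regression across three assays.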

hD2L = biological target: T2, hD2L (Homo sapiens, UniProt P14416); experiment: Radioligand binding, dopamine D2 ([3H]spiperone); conditions: Table 4; [3H]spiperone 1 nM; read-out: Binding affinity, IC50 (nM) D2
T2 construct: purchased BioSignal Packard Inc., Montreal, Canada
T2 sequence (P14416 whole entry): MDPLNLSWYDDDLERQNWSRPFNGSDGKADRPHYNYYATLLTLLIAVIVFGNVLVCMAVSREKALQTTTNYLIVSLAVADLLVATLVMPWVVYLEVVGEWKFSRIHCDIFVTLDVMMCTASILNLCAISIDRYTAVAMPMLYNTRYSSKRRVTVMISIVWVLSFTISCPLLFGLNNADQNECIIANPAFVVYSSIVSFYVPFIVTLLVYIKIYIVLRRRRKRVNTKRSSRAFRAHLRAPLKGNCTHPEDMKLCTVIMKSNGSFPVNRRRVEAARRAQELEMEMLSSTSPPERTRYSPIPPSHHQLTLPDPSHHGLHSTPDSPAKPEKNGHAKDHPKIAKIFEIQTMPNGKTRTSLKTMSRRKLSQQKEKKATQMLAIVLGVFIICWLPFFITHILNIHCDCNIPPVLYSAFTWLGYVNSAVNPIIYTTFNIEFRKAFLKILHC
Procedure, shortened: as §1

5-HT1a = biological target: T3, 5-HT1a (Homo sapiens, UniProt P08908); experiment: Radioligand binding, 5-HT1a ([3H]8-OH-DPAT); conditions: Table 4; [3H]8-OH-DPAT 0.5 nM; read-out: Binding affinity, IC50 (nM) 5-HT1a
T3 construct: purchased Euroscreen/BioSignal Packard Inc
T3 sequence (P08908 1-422): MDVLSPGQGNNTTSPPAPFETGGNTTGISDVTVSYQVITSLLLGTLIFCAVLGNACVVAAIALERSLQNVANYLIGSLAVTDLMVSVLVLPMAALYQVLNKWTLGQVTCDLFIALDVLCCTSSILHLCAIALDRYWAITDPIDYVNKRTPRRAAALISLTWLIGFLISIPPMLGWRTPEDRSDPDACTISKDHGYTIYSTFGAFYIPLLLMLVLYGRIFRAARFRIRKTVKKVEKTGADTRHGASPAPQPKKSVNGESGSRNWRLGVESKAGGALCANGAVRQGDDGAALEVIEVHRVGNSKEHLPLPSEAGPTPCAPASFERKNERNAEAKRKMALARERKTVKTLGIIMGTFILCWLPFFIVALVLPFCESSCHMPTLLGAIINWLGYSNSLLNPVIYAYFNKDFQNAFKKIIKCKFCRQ
Procedure, shortened: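 Binding was measured on commercial receptor membrane preparations, following the membrane supplier's own test protocol.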

hD3 = biological target: T4, hD3 (Homo sapiens, UniProt P35462); experiment: Radioligand binding, dopamine D3 ([3H]spiperone); conditions: Table 4; [3H]spiperone 1 nM; read-out: Binding affinity, IC50 (nM) D3
T4 construct: purchased BioSignal Packard Inc., Montreal, Canada
T4 sequence (P35462 whole entry): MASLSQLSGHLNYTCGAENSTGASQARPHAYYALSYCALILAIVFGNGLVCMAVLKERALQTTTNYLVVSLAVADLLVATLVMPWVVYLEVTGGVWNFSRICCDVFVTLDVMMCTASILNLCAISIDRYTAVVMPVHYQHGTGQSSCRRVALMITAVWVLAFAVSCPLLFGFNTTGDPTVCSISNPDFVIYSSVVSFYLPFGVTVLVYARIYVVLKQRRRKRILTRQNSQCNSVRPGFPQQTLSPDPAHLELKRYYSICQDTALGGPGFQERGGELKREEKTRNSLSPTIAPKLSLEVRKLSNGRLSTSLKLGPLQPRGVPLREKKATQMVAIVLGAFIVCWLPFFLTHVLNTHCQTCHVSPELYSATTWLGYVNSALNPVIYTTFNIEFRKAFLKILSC
Procedure, shortened: as §1

[1] = biological target: T5, Human serotonin 5-HT6 receptor (Homo sapiens, UniProt P50406); experiment: [3H]LSD binding assay on cloned 5-HT6 receptor membranes; conditions: for binding affinity at 5-HT6 receptor labeled by [3H]LSD, in words: comment on Table 2
T5 construct: made in house; host or cells: insect Sf21 cells (baculovirus vector BacPAK8)
T5 sequence (P50406 whole entry): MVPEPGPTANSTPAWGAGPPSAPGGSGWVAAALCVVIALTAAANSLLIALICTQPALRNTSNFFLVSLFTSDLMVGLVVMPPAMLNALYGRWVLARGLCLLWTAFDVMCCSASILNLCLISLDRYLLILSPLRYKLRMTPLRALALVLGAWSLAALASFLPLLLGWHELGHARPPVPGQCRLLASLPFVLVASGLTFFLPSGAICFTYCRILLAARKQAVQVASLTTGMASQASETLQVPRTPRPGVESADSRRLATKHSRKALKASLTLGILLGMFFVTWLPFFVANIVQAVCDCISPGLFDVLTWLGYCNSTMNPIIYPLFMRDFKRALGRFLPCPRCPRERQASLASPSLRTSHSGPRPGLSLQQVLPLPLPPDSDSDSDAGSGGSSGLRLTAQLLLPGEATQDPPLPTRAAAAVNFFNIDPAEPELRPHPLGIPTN

5-HT7 = biological target: T6, 5-HT7 (Homo sapiens, UniProt P34969); experiment: Radioligand binding, 5-HT7 ([3H]LSD); conditions: Table 4; [3H]LSD 3 nM; read-out: Binding affinity, IC50 (nM) 5-HT7
T6 construct: purchased Euroscreen/BioSignal Packard Inc
T6 sequence (P34969 whole entry): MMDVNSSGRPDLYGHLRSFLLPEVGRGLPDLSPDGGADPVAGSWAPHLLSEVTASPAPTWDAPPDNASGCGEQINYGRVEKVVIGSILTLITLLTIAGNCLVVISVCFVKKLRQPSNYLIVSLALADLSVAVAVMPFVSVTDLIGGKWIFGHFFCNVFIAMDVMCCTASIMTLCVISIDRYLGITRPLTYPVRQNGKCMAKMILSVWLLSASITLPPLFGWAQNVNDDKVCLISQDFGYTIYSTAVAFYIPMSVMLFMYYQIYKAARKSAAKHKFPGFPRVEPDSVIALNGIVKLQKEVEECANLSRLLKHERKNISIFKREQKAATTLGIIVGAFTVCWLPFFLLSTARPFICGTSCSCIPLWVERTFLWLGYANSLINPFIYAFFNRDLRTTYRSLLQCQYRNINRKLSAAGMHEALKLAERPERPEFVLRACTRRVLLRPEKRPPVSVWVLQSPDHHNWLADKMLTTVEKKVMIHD

5-HT2c = biological target: T7, 5-HT2c (Homo sapiens, UniProt P28335); experiment: Radioligand binding, 5-HT2c ([3H]Mesulergine); conditions: Table 4; [3H]Mesulergine 1 nM; read-out: Binding affinity, IC50 (nM) 5-HT2c
T7 construct: purchased Euroscreen/BioSignal Packard Inc
T7 sequence (P28335 33-458): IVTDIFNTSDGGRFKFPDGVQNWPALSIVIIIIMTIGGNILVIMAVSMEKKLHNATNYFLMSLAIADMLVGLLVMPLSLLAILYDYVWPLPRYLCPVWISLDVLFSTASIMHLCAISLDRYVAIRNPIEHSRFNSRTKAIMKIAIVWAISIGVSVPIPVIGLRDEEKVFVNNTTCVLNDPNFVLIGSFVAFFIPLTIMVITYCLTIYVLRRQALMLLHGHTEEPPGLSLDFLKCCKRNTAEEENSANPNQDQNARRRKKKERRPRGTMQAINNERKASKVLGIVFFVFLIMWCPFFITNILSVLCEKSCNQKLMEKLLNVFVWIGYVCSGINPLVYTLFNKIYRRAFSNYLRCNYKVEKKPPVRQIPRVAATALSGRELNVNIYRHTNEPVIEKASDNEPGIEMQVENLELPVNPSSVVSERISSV

Rotarod deficit in mice = assay type: in vivo, mouse; conditions: mouse, in vivo, po, unit printed as image, read-out: TD50 (median neurotoxic dose)
Description: (§2) The mouse was placed on a 1 inch diameter knurled plastic rod rotating at 6 rpm (Ugo-Basile, Milano, Italy), and the rotarod deficit (%) was obtained by counting the number of animals fallen from the rotating rod within 1 min [Dunham et al., 1957] at 60, 90 and 120 min after the injection of the compound according to the invention(200, 300 or 400 ? ). […] The compounds of the examples were suspended in 3% Tween 80 solution, and were administered (p.o.) 60 min before the testing.

mice = experiment: Rotarod deficit in mice; assay type: in vivo, mouse
Description: as §2

5-HT2a = biological target: T8, 5-HT2a (Homo sapiens, UniProt P28223); experiment: Radioligand binding, 5-HT2a ([3H]Ketanserin); conditions: Table 4; [3H]Ketanserin 1 nM; read-out: Binding affinity, IC50 (nM) 5-HT2a
T8 construct: purchased Euroscreen/BioSignal Packard Inc
T8 sequence (P28223 whole entry): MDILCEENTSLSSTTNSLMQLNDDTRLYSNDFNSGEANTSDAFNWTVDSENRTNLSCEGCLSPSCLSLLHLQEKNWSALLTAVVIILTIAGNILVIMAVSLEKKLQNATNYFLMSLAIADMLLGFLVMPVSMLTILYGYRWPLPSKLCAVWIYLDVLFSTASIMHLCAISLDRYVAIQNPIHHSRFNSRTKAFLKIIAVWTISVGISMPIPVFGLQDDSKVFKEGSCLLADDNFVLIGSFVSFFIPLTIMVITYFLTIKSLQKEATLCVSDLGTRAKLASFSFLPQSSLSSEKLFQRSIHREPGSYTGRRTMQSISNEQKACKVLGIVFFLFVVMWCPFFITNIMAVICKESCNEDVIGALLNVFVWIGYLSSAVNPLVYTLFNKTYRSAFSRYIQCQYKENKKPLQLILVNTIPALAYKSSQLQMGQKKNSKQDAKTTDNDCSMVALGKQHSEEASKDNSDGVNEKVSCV

D1 = D1 (Homo sapiens, UniProt P21728); experiment: Radioligand binding, dopamine D1; conditions: Table 4; read-out: Binding affinity, IC50 (nM) D1
Sequence of D1 (P21728 whole entry): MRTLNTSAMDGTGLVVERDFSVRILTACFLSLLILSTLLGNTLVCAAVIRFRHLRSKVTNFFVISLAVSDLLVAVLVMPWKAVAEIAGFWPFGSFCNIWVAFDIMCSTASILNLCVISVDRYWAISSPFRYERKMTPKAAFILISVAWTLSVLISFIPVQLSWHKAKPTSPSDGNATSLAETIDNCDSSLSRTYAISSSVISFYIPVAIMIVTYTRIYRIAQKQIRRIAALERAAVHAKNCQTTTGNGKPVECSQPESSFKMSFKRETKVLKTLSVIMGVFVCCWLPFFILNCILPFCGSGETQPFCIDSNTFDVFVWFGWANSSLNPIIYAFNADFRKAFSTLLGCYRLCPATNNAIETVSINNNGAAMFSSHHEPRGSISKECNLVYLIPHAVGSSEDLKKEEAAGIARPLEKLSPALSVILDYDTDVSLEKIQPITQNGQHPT

[2] = Table 2, 1.87 nM [3H]LSD, 37 C, 60 min, read-out: IC50 (nM), binding affinity to the 5-HT6 receptor
[3] = Table 4, read-out: Binding affinity, IC50 (nM) 5-HT6

SMILES | IC50 (hD4.2 receptor) [nM] | IC50 (hD2L) [nM] | IC50 (5-HT1a) [nM] | IC50 (hD3) [nM] | IC50 [1, 2] [nM] | IC50 [1, 3] [nM] | IC50 (5-HT7) [nM] | IC50 (5-HT2c) [nM] | TD50 at 120 min (Rotarod deficit in mice) [mg/kg] | Rotarod deficit (%) (mice; 200 p.o. (dose unit not given)) | Rotarod deficit (%) (mice; 300 p.o. (dose unit not given)) | Rotarod deficit (%) (mice; 400 p.o. (dose unit not given)) | IC50 (5-HT2a) [nM] | melting point [°C] | IC50 (D1) [nM] | binding affinity at 5-HT6 receptor labeled by [3H]LSD, in words [1]
COc1ccc(C2(C)C(=O)c3c(N4CCNCC4)cc(Cl)cc3N(Cc3cccc(OC)c3)C2=O)cc1 (centres unmarked) [Example 27, 7-Chloro-1-(3-methoxy-benzyl)-3-(4-methoxy-phenyl)-3-methyl-5-piperazin-1-yl-1H-quinoline-2,4-dione] | > 10000 | > 1000 | > 10000 | 2640 | 2.3 | 2.3 | > 1000 | > 1000 | > 400 | 0 | 0 | 0 | > 1000 | 110 to 112 | > 1000 | 
CN1CCN(c2cc(Cl)cc3c2C(=O)C(C)(c2ccccc2)C(=O)N3Cc2ccccc2)CC1 (centres unmarked) [Example 11, 1-Benzyl-7-chloro-3-methyl-5-(4-methyl-piperazin-1-yl)-3-phenyl-1H-quinoline-2,4-dione] | > 10000 | 844 | 2590 | 678 | 1.4 | 1.4 | 2200 | 514 | > 400 | 0 | 0 | 0 | 1230 | 138 to 140 | 4670 | significant affinities
COc1ccc(C2(C)C(=O)c3c(N4CCNCC4)cc(Cl)cc3N(Cc3ccc4ccccc4c3)C2=O)cc1 (centres unmarked) [Example 39, 7-Chloro-3-(4-methoxy-phenyl)-3-methyl-1-naphthalen-2-ylmethyl-5-piperazin-1-yl-1H-quinoline-2,4-dione] | > 10000 | > 1000 | > 10000 | > 1000 | 4.7 | 4.7 | > 1000 | > 1000 | > 400 | 0 | 0 | 0 | > 1000 | 169 to 170 | > 1000 | 
COc1ccc(C2(C)C(=O)c3c(N4CCN(C)CC4)cc(Cl)cc3N(Cc3ccccc3)C2=O)cc1 (centres unmarked) [Example 1, 1-Benzyl-7-chloro-3-(4-methoxy-phenyl)-3-methyl-5-(4-methyl-piperazin-1yl)-1H-quinoline-2,4-dione] | 8020 | > 10000 | 4410 | 2280 | 1.9 | 1.9 | 7490 | > 10000 | > 400 | 0 | 0 | 0 | 1120 | 66 to 67 | 174 | significant affinities
CC1(c2ccc(O)cc2)C(=O)c2c(N3CCNCC3)cc(Cl)cc2N(Cc2cccc(O)c2)C1=O (centres unmarked) [Example 28, 7-Chloro-1-(3-hydroxy-benzyl)-3-(4-hydroxy-phenyl)-3-methyl-5-piperazin-1-yl-1H-quinoline-2,4-dione] | > 10000 | > 10000 | > 10000 | > 1000 | 3 | 3 | > 10000 | > 10000 | > 400 | 0 | 0 | 0 | > 10000 | 229 to 230 | > 10000 | 
CN1CCN(c2cc(Cl)cc3c2C(=O)C(C)(c2ccc(O)cc2)C(=O)N3Cc2ccccc2)CC1 (centres unmarked) [Example 2, 1-Benzyl-7-chloro-3-(4-hydroxy-phenyl)-3-methyl-5-(4-methyl-piperazin-1-yl)-1H-quinoline-2,4-dione] | > 10000 | > 10000 | > 10000 | 589 | 2.5 | 2.5 | 920 | 487 | > 400 | 0 | 0 | 0 | 2620 | 258 to 259 | 4970 | 
CC1(c2ccc(O)cc2)C(=O)c2c(N3CCNCC3)cc(Cl)cc2N(Cc2cccc([N+](=O)[O-])c2)C1=O (centres unmarked) [Example 24, 7-Chloro-3-(4-hydroxy-phenyl)-3-methyl-1-(3-nitro-benzyl)-5-piperazin-1-yl-1H-quinoline-2,4-dione] | > 10000 | 3000 | > 10000 | 2330 | 14.5 | 14.5 | > 10000 | 6090 | > 400 | 0 | 0 | 0 | 5040 | 252 to 253 | 4930 | 
CN1CCN(c2cc(Cl)cc3c2C(=O)C(C)(c2ccc([N+](=O)[O-])cc2)C(=O)N3Cc2ccccc2)CC1 (centres unmarked) [Example 3, 1-Benzyl-7-chloro-3-methyl-5-(4-methyl-piperazin-1-yl)-3-(4-nitro-phenyl)-1H-quinolin-2,4-dione] | > 10000 | > 10000 | 5730 | 360 | 4.7 | 4.7 | 4570 | > 10000 | > 400 | 0 | 0 | 0 | 1540 | 179 to 180 | 814 | 
